Laboratory results reported in ChEMBL document CHEMBL3044657, “Identification of an antiepileptic lead compound with a more selective activity and its analogues for GABA-AT using in silico approach” (2013).
Activity calls are given as the source filed them. The calls are words filed in the database; no cut-off is given here.

Columns and labels:
Mus musculus [1] = species: Mus musculus; test: Antiepileptic activity in Mus musculus (mouse) assessed as minimum dose required to protect half or more number of animals against maximal electroshock-induced seizures after 0.5 hr; assay type: functional; details: read-out: MED
Mus musculus [2] = test: Antiepileptic activity in Mus musculus (mouse) assessed as protection against maximal electroshock-induced seizures at 300 mg/kg after 0.5 hr; assay type: functional, organism-based; design: dose 300 mg/kg

Row | Structure (SMILES) | minimal effective dose (Mus musculus [1]) [mg/kg] | Activity (Mus musculus [2])
1 | C/C(=N\NC(=O)Nc1ccc(Br)cc1)c1ccc(N)cc1 | 300 | –
2 | C/C(=N\NC(=O)Nc1ccc(Br)cc1)c1ccc([N+](=O)[O-])cc1 | 300 | –
3 | Cc1ccc(NC(=S)Nc2ccc(S(=O)(=O)Nc3ccc(Br)cc3)cc2)cc1 | 100 | –
4 | O=c1snc(Nc2cccnc2)n1-c1cccnc1 | 300 | –
5 | Fc1ccc(NC2=NSC(Nc3ccc(F)cc3)N2)cc1 (centres undefined) | 100 | –
6 | c1ccc(NC2=NSC(Nc3ccccn3)N2)nc1 (centres undefined) | 300 | –
7 | COc1cc(/C=N/NC(=O)Nc2ccc(Br)cc2)ccc1O | 300 | –
8 | CCOc1ccc(Nc2nsc(=O)n2-c2ccc(OCC)cc2)cc1 | 100 | –
9 | COc1ccc(/C=N/NC(=O)Nc2ccc(Br)cc2)cc1OC | 300 | –
10 | CCOc1ccc(NC2=NSC(Nc3ccc(OCC)cc3)N2)cc1 (centres undefined) | 100 | –
11 | CNC(=S)Nc1ccc(S(=O)(=O)Nc2ccc(Br)cc2)cc1 | 300 | –
12 | CCOc1ccc(NC(=O)N/N=C(\C)c2ccc(O)cc2)cc1 | 100 | –
13 | O=c1snc(Nc2ccccn2)n1-c1ccccn1 | 300 | –
14 | CN(C)c1ccc(/C=N/NC(=O)Nc2ccc(Br)cc2)cc1 | 300 | –
15 | CCOc1ccc(NC(=O)N/N=C/c2ccccc2Cl)cc1 | 100 | –
16 | O=c1snc(Nc2ccncc2)n1-c1ccncc1 | 300 | –
17 | O=C1C=CC(=NNC(=O)Nc2ccc([N+](=O)[O-])cc2)C=C1 | 300 | –
18 | O=c1snc(Nc2ccc(F)cc2)n1-c1ccc(F)cc1 | 100 | –
19 | CCOc1ccc(NC(=O)N/N=C/c2ccccc2O)cc1 | 300 | –
20 | C/C(=N\NC(=O)Nc1ccc(Br)cc1)c1ccccc1 | 100 | –
21 | CCNC(=S)Nc1ccc(S(=O)(=O)Nc2nc3ccc(Cl)cc3s2)cc1 | – | inactive
22 | O=c1snc(Nc2ncccn2)n1-c1ncccn1 | 300 | –

Row | Structure (SMILES) | minimal effective dose (Mus musculus [1]) [mg/kg] | Activity (Mus musculus [2])
23 | CNC(=S)Nc1ccc(S(=O)(=O)Nc2ccc(Cl)cc2)cc1 | 300 | –
24 | c1cc(NC2=NSC(Nc3ccncc3)N2)ccn1 (centres undefined) | 300 | –
25 | O=c1snc(Nc2cccc3ccccc23)n1-c1cccc2ccccc12 | 100 | –
26 | CNC(=S)Nc1ccc(S(=O)(=O)Nc2nc3ccc(Cl)cc3s2)cc1 | – | inactive
27 | O=C(NN=C(c1ccccc1)c1ccccc1)Nc1ccc(Br)cc1 | 300 | –
28 | CCOc1ccc(NC(=O)N/N=C(\C)c2ccc(Cl)cc2)cc1 | 300 | –
29 | CNC(=S)Nc1ccc(S(=O)(=O)Nc2nc3ccc(F)cc3s2)cc1 | 300 | –
30 | O=C(NN=C1c2ccccc2C(=O)c2ccccc21)Nc1ccc([N+](=O)[O-])cc1 | 300 | –
31 | Cc1ccc(NC(=S)Nc2ccc(S(=O)(=O)Nc3ccc(Cl)cc3)cc2)cc1 | 100 | –
32 | CCOc1ccc(NC(=O)N/N=C(\C)CC(C)C)cc1 | 100 | –
33 | CCOc1ccc(NC(=O)N/N=C(\C)CC(C)=O)cc1 | 100 | –
34 | CCOc1ccc(NC(=O)N/N=C(\C)c2ccccc2O)cc1 | 100 | –
35 | C/C(=N\NC(=O)Nc1ccc(Br)cc1)c1ccc(C)cc1 | – | inactive
36 | CC(C)=NNC(=O)Nc1ccc([N+](=O)[O-])cc1 | 300 | –
37 | O=C(N/N=C/c1ccccc1Cl)Nc1ccc(Br)cc1 | 300 | –
38 | c1ccc2c(NC3=NSC(Nc4cccc5ccccc45)N3)cccc2c1 (centres undefined) | 100 | –
39 | Cc1ccc(NC(=S)Nc2ccc(S(=O)(=O)Nc3ccc(C)cc3)cc2)cc1 | 300 | –
40 | O=C(N/N=C/c1ccccc1[N+](=O)[O-])Nc1ccc(Br)cc1 | 300 | –
41 | CNC(=S)Nc1ccc(S(=O)(=O)Nc2nc3ccc(OC)cc3s2)cc1 | 300 | –
42 | c1cncc(NC2=NSC(Nc3cccnc3)N2)c1 (centres undefined) | 300 | –
43 | C/C(=N\NC(=O)Nc1ccc(Br)cc1)c1ccc(O)cc1 | 300 | –
44 | CCNC(=S)Nc1ccc(S(=O)(=O)Nc2nc3ccc(F)cc3s2)cc1 | 300 | –
